Where a name gives a salt, the structure may show the parent alone.
- melting point: 148 to 165 °C
Compound: CC(C)Oc1cc(C(O)CN2CCN(CCc3ccccc3)CC2)ccc1-c1cccc(N)n1 (stereo not shown) (as salt: hydrochloride) [Example 1, 1-[4-(6-AMINO-PYRIDIN-2-YL)-3-ISOPROPOXY-PHENYL]-2-(4-PHENETHYL-PIPERAZIN-1-YL)-ETHANOL]
